Values of other authors as cited in patent US9006272B2, “Pharmaceutical compositions and method for treating inflammation in cattle and other animals” (Intervet Inc., priority 2006, dated 2015).

Details: background statement

- lipid solubility: very poor
SMILES: Cc1c(Nc2ncccc2C(=O)O)cccc1C(F)(F)F [flunixin meglumine]
